Experimental data as given in US6355410B1, “Method of reducing cell proliferation by inhibiting the Na+/H+ exchanger and inducing apoptosis” (priority 1998, dated 2002).

Legend:
[1] = biological target: NHE-1 (Homo sapiens, UniProt P19634); settings: literature reference 19; cited from earlier work
[2] = tested on: KG-1a cells; assay: Apoptosis (annexin-V) of KG-1a cells incubated with HMA; type: cell-based, human; settings: 10^-4M HMA, 5h, without HMA 2% to 9%
Protocol: (§1) Leukaemic cell lines (KG-1a and CEM) were incubated for varying periods of time with 10^−4M HMA and pHi and apoptosis measured. For both cell lines, in the absence of HMA, pHi ranged from 7.43±0.1 at time zero to 6.9±0.08 after 5h of incubation. However, after 5h with HMA, the pHi had decreased to 5.6±0.07 (n=4) for KG-1a and 6.1±0.06 (n=4) for CEM cells. In the absence of HMA, the percentage of KG-1a and CEM cells undergoing apoptosis, measured by annexin-V, ranged from 2% to 9% for the duration of the experiment, whereas by 5h in the presence of HMA, the percentage of KG-1a or CEM cells undergoing apoptosis ranged from 70-80%.
(§2) The following human leukemic cell lines were originally obtained from ATCC (Rockville, Md.): KG-1a (BM acute myelogenous leukemia), Jurkat (acute T-cell leukemia), Molt-4 (PB acute lymphoblastic leukemia), CEM (PB acute lymphoblastic leukemia), K562 (chronic myeloid leukemia), THP-1 (acute monocytic leukemia), Nalm-6 (B-cell leukemia). All cell lines were cultured in Dulbecco's Modified Eagles Medium (DMEM) containing 10% heat-inactivated fetal bovine serum (FBS). Only cells in log phase growth were used.
(§3) Two methods were used to determine if reduction in pHi induced apoptosis. […]

[3] = tested on: normal peripheral blood cells; assay: Intracellular pH (flow cytometry and FRIM) of normal peripheral blood cells incubated with HMA; type: cell-based, human
Protocol: Normal peripheral blood cells were incubated in the absence or presence of the NHE-1 inhibitor, 5-(N,N-hexamethylene)-amiloride (HMA), at concentrations ranging from 10^−7M to 10^−4M for up to 5h. Cells were then aliquoted so that pHi and apoptotic measurements could be performed. In these experiments, pHi was measured using both flow cytometry and fluorescence ratio imaging microscopy (FRIM). […] The proportion of necrotic cells measured by propidium iodide (PI) remained constant at about 5% in the absence or presence of HMA for each time point measured. […] It is interesting to note that both methods measured about 25% apoptotic cells when pHi was reduced to about 6.8. […]
(§4) Measurement of pHi for hemopoietic cells has been described in detail elsewhere (8). Briefly, intracellular pH was measured by both flow cytometry and FRIM by incubating cells with carboxy SemiNaphthoRhodaFluor-1 acetoxymethyl ester, acetate (carboxy SNARF-1 AM, Molecular Probes, Eugene, Oreg.) for 15 min at room temperature. […] Flow cytometric results were analyzed using WinList Software (Verity Software House Inc. Topsham, ME) to obtain fluorescence ratio measurements. For both flow cytometry and FRIM analysis, the calibration curves were obtained and sample pHi values determined from the fluorescence ratio values using Table Curve software (SPSS Inc., Chicago, Ill.). […]

[4] = tested on: KG-1a cells; assay: Intracellular pH of KG-1a cells incubated with HMA; type: cell-based, human; settings: 10^-4M HMA, 5h, n=4, without HMA 6.9±0.08 after 5h
Protocol: as §1, with “70-80%. […]” for “70-80%.”
as §4

[5] = tested on: CEM cells; assay: Intracellular pH of CEM cells incubated with HMA; type: cell-based, human; settings: 10^-4M HMA, 5h, n=4, without HMA 6.9±0.08 after 5h
Protocol: as §1, with “70-80%. […]” for “70-80%.”
as §4

[6] = tested on: primary ALL patient leukaemic cells; assay: Intracellular pH (FRIM and flow cytometry) of fresh ALL patient leukaemic cells incubated with HMA; type: cell-based, human; settings: 10^-4M HMA, 1h, 3h and 5h, values set at 5.0
Protocol: (§5) Intracellular pH was measured by both FRIM and flow cytometry, while apoptosis was measured by annexin-V and TUNEL. […] For this reason, pHi values for 1h, 3h and 5h were set at 5.0. After 1h, the proportion of cells incubated with HMA undergoing apoptosis was about 85% using annexin-V and about 60% using the TUNEL technique.
as §4, with “temperature. SNARF is excited at 488 nm and emits at 580 nm and 640 nm. The ratio of the emission wavelengths 640/580 was used (8) to estimate the pHi from a calibration curve. The calibration curve was performed using the nigericin clamp technique (21).” for “temperature.”

[7] = tested on: normal peripheral blood cells; type: cell-based, human
Protocol: Normal peripheral blood cells were incubated in the absence or presence of the NHE-1 inhibitor, 5-(N,N-hexamethylene)-amiloride (HMA), at concentrations ranging from 10^−7M to 10^−4M for up to 5h. Cells were then aliquoted so that pHi and apoptotic measurements could be performed. In these experiments, pHi was measured using both flow cytometry and fluorescence ratio imaging microscopy (FRIM). […] The proportion of necrotic cells measured by propidium iodide (PI) remained constant at about 5% in the absence or presence of HMA for each time point measured. […] It is interesting to note that both methods measured about 25% apoptotic cells when pHi was reduced to about 6.8. As shown in the next section, a pHi of 6.8 appears to be a critical value below which increased apoptosis occurs.
Two methods were used to determine if reduction in pHi induced apoptosis. The first used annexin-V conjugated to fluorescein isothiocyanate (FITC) (Pharmingen, San Diego, Calif.) to determine the translocation of phosphatidylserine from the inside to the outside of the plasma membrane. Cells were counter-stained with propidium iodide (PI) to determine the proportion of necrotic cells. Cell staining was performed according to the manufacturer's instructions. The second technique used terminal deoxynucleotidyl transferase (TdT)-mediated dUTP nick-end labeling (TUNEL) of fragmented DNA. […]

[8] = tested on: KG-1a cells; assay: RNA degradation in KG-1a cells by denaturing RNA gel electrophoresis; type: cell-based, human; settings: 10^-4M HMA
[9] = tested on: CEM cells; assay: Apoptosis (annexin-V) of CEM cells incubated with HMA; type: cell-based, human; settings: 10^-4M HMA, 5h, without HMA 2% to 9%
Protocol: as §1, §2, §3

[10] = tested on: primary ALL patient leukaemic cells; assay: Apoptosis (annexin-V and TUNEL) of fresh ALL patient leukaemic cells incubated with HMA; type: cell-based, human
Protocol: as §5
Two methods were used to determine if reduction in pHi induced apoptosis. The first used annexin-V conjugated to fluorescein isothiocyanate (FITC) (Pharmingen, San Diego, Calif.) to determine the translocation of phosphatidylserine from the inside to the outside of the plasma membrane. Cells were counter-stained with propidium iodide (PI) to determine the proportion of necrotic cells. Cell staining was performed according to the manufacturer's instructions. The second technique used terminal deoxynucleotidyl transferase (TdT)-mediated dUTP nick-end labeling (TUNEL) of fragmented DNA. Fluorochrome (FITC)-labelling of DNA (Boehringer Mannhein, Germany) was performed according to the manufacturer's instructions and measurements performed by flow cytometry.
The amiloride analogue, HMA (Sigma Chemicals, St. Louis, Mo.) was dissolved in dimethylsulphoxide (DMSO) and a stock solution (10^−3M) prepared in DMEM. Cells were incubated at concentrations ranging from 10^−7M to 10^−4M for varying periods of time specified in the results. After incubation, cells were washed and aliquoted according to the type of measurement (pHi or apoptosis) performed. Controls included cells not treated with HMA.

[11] = tested on: normal peripheral blood (PB) cells; assay: Proportion of cells in S-phase (propidium iodide) of peripheral blood incubated with phorbol ester; type: cell-based, human; settings: untreated PB 1.19%±0.34%
Protocol: (§6) The pHi and the percentage of cells in S-phase of the cell cycle were simultaneously determined in aliquots of the same sample, using propidium iodide labeling. Prior to analysis, peripheral blood was also incubated with phorbol ester to activate the NHE-1. […] Furthermore, there was a direct correlation between pHi and proportion of cells in S-phase in both normal and neoplastic haemopoietic cells of various origins (FIG. 4). Thus, intracellular alkalinisation is associated with an increased proliferation and possibly transformation of haemopoietic cells. We hypothesized that unregulated proliferation of leukaemic cells might, at least in part, be due to suppression of normal apoptotic mechanisms. In this case, inhibitors of the NHE-1 would be expected to induce apoptosis in leukaemic cells, and we therefore examined the effects of NHE-1 inhibitors upon such cells.
Normal PB cells were incubated for 5 min with 10^−6 M phorbol-12-myristate-13-acetate (PMA, Sigma Chemical Company, St. Louis, Mo.) to non-specifically activate the NHE-1. […]
The proportion of cells in S-phase of the cell cycle was determined using the propidium iodide technique using the CycleTEST Plus DNA reagent kit (Becton-Dickinson, San Jose, Calif.). Data were acquired by flow cytometry, and analyzed using the Modfit LT software program (Verity Software House Inc).

[12] = tested on: normal peripheral blood (PB) cells; assay: Intracellular pH (SNARF, flow cytometry) of peripheral blood incubated with phorbol ester; type: cell-based, human; settings: PB incubated with phorbol ester (10^-6 M PMA, 5 min); unstimulated PB 7.03±0.04
Protocol: as §6, with “In this case, inhibitors of the NHE-1 would be expected to induce apoptosis in leukaemic cells, and we therefore examined the effects of NHE-1 inhibitors upon such cells.” left out
Measurement of pHi for hemopoietic cells has been described in detail elsewhere (8). Briefly, intracellular pH was measured by both flow cytometry and FRIM by incubating cells with carboxy SemiNaphthoRhodaFluor-1 acetoxymethyl ester, acetate (carboxy SNARF-1 AM, Molecular Probes, Eugene, Oreg.) for 15 min at room temperature. […] Flow cytometric results were analyzed using WinList Software (Verity Software House Inc. Topsham, ME) to obtain fluorescence ratio measurements. For both flow cytometry and FRIM analysis, the calibration curves were obtained and sample pHi values determined from the fluorescence ratio values using Table Curve software (SPSS Inc., Chicago, Ill.).

[13] = ALL patient cells, 10^-4M HMA, 1h

Sequence of NHE-1 (P19634 whole entry, species assumed): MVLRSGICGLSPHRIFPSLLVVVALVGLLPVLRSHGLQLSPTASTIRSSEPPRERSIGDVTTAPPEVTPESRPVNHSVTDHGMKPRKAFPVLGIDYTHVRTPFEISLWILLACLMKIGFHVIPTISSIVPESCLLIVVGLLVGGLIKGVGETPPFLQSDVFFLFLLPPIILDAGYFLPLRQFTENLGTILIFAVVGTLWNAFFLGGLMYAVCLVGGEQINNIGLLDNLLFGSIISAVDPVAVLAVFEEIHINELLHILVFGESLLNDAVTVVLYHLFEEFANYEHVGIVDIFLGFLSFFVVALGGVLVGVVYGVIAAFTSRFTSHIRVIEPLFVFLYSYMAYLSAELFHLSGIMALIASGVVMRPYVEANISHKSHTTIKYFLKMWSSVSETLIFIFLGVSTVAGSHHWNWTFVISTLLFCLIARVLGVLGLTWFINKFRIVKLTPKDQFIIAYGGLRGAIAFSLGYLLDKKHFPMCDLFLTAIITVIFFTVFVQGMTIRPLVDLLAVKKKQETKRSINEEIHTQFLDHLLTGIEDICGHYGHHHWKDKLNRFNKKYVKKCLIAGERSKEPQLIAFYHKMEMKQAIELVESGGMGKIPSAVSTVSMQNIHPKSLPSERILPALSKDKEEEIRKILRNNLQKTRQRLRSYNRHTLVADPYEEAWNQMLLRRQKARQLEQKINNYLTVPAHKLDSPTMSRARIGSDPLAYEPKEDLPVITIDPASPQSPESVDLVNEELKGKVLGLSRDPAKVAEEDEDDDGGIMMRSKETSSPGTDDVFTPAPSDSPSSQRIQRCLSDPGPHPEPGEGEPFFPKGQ

Structure (SMILES) | potency and specificity of NHE-1 inhibition relative to amiloride [1] | percentage of cells undergoing apoptosis, annexin-V [2] | inhibition (decrease of pHi), time and concentration dependence ([3]; HMA 10^-7M to 10^-4M, up to 5h, flow cytometry and FRIM) | pHi reduced to ([3]; normal PB incubated with HMA, pHi at which about 25% apoptotic cells were measured) | pHi [4] | pHi [5] | pHi measured by flow cytometry [6] | proportion of apoptotic cells, time and concentration dependence ([7]; HMA 10^-7M to 10^-4M, up to 5h, annexin-V and TUNEL) | apoptotic cells ([7]; normal PB with HMA, both methods (annexin-V, TUNEL), when pHi reduced to about 6.8) | onset of RNA degradation after addition [8] | time to total RNA degradation [8] [h] | percentage of cells undergoing apoptosis, annexin-V [9] | proportion of cells undergoing apoptosis, TUNEL [10, 13] | proportion of cells undergoing apoptosis, annexin-V [10, 13] | apoptotic cells, both methods (annexin-V and TUNEL) ([10]; ALL patient cells, 10^-4M HMA, 5h) | sensitivity of primary ALL cells versus normal PB ([10]; differential effect of HMA between normal and acute lymphoblastic leukaemic cells) | time to induction of apoptosis ([10]; primary leukemic cells) [h] | cells either dead or undergoing apoptosis ([10]; primary leukemic cells, between 3 and 5 h of incubation) | proportion of cells in S-phase [11] | pHi [12]
NC(N)=NC(=O)c1nc(Cl)c(N2CCCCCC2)nc1N [HMA, 5-(N,N-hexamethylene)-amiloride] | greater potency and specificity of NHE-1 inhibition than amiloride itself | 70-80% | greatest inhibition occurred at 5h, using the highest HMA concentration | about 6.8 | 5.6±0.07 | 6.1±0.06 | too low to calibrate | greatest proportion of apoptotic cells was found after 5h incubation with 10^−4M HMA | about 25% | began to degrade between 30 min and 1h | ≤ 3 | 70-80% | about 60% | about 85% | over 90% | greater sensitivity to HMA than normal PB | ≤ 1 | more than 90% | – | –
CCN(c1nc(N)c(C(=O)N=C(N)N)nc1Cl)C(C)C [EIPA, 5-(N-ethyl-N-isopropyl) amiloride] | greater potency and specificity of NHE-1 inhibition than amiloride itself | – | – | – | – | – | – | – | – | – | – | – | – | – | – | – | – | – | – | –
CCCCCCCCCCCCCC(=O)O[C@@H]1[C@@H](C)[C@@]2(O)[C@@H](C=C(CO)C[C@]3(O)C(=O)C(C)=C[C@@H]23)[C@@H]2C(C)(C)[C@]12OC(C)=O [phorbol ester, phorbol-12-myristate-13-acetate] | – | – | – | – | – | – | – | – | – | – | – | – | – | – | – | – | – | – | 8.7%±0.17% | 7.32±0.043
